The text below walks through data of US10703743B2 (priority 2010, dated 2020).

Assay [1] addresses gp120-CD4 interaction (Human immunodeficiency virus type 1 group M subtype B, UniProt P03375). In words: biochemical. Format: binding, HIV-1.
Assay [2] relates to MT-2. As to the kind of experiment: MT-2 activity. Format: cell-based. Particulars: Homo sapiens, MT2.
In assay [3] the test system is HIV-1 isolate SF162. In words: viral inhibition assay, HIV-1 isolate SF162. Format: cell-based. Particulars: Human immunodeficiency virus 1, TZM-b1, read-out: IC50 SF162. The method, then:
(§1) In this assay, viral inhibition was determined by HIV Tat-induced luciferase (Luc) reporter gene expression after a single round of virus infection in TZM-b1 cells according to the method of Platt, et al., J. Virol. 1998, 72, 2855-64.

Assay [4] has as its system HIV-1 isolate ADA. In words: viral inhibition assay, HIV-1 isolate ADA. Format: cell-based. The method, then: as §1
Assay [5] deals with HIV-1 isolate JR-FL. In words: viral inhibition assay, HIV-1 isolate JR-FL. Format: cell-based. Particulars: Human immunodeficiency virus 1, TZM-b1, read-out: IC50 JR-FL. On the procedure:
as §1

Assay [6] deals with HIV-1 isolate HXBc2. In words: viral inhibition assay, HIV-1 isolate HXBc2. Particulars: Human immunodeficiency virus 1, TZM-b1, read-out: IC50 HXBc2. Format: cell-based. The method, then:
as §1

Assay [7] relates to HIV-1 isolate BaL. In words: viral inhibition assay, HIV-1 isolate BaL. Format: cell-based. On the procedure: as §1

Read-outs that look alike come from different tables or passages of the source.

Usually IC50 stands for the concentration at which inhibition is half-maximal. As for `COc1ccc(-c2ccc(CNC(=O)COCCOCCOCCOCCn3cc(COCCOCCOCCOCCNc4ccc([N+](=O)[O-])cc4[N+](=O)[O-])nn3)o2)c2[nH]cc(C(=O)C(=O)N3CCN(C(=O)c4ccccc4O)CC3)c12`, the figures for the IC50 in assay [1] and in assay [2] were 490 nM and 200 nM, respectively.
The like results for `CCc1ccc(C(=O)N2CCN(C(=O)C(=O)c3c[nH]c4c(-c5ccc(CNC(=O)COCCOCCOCCOCCn6cc(COCCOCCOCCOCCNc7ccc([N+](=O)[O-])cc7[N+](=O)[O-])nn6)o5)ccc(OC)c34)CC2)cc1` were, in that order, 469 nM and about 600 nM.
Regarding `COc1ccnc2[nH]cc(C(=O)C(=O)N3CCN(C(=O)c4ccccc4)C[C@H]3C)c12` [BMS-378806, 4-benzoyl-1-(2-(4-methoxy-1H-pyrrolo(2,3-b)pyridin-3-yl)-1,2-dioxoethyl)-2-methyl-, (2R)-Piperazine, reference compound], the IC50 in assay [3] worked out at 359 nM; in assay [4] (Human immunodeficiency virus 1, HIV Tat-induced luciferase reporter gene expression after a single round of virus infection in TZM-b1 cells, read-out: IC50 ADA) it was 344 nM; in assay [5], 2600 nM; in assay [6] it was 31.9 nM. In assay [7] (HIV Tat-induced luciferase reporter gene expression after a single round of virus infection in TZM-b1 cells), the “IC50 BaL” value is “dnc”.
In turn, `COc1ccc(-c2ccc(CNC(=O)COCCOCCOCCOCCn3cc(COCCOCCOCCOCCNc4ccc([N+](=O)[O-])cc4[N+](=O)[O-])nn3)o2)c2[nH]cc(C(=O)C(=O)N3CCN(C(=O)c4ccc(C(C)C)cc4)CC3)c12` yielded a 50% inhibitory concentration (IC50) in assay [1] of 953 nM.
Consider `COc1ccc(-c2ccc(CNC(=O)COCCOCCOCCOCCn3cc(COCCOCCOCCOCCNc4ccc([N+](=O)[O-])cc4[N+](=O)[O-])nn3)o2)c2[nH]cc(C(=O)C(=O)N3CCN(C(=O)c4ccc5ccccc5c4)CC3)c12`, for which the IC50 in assay [1] is 5240 nM; in assay [2], about 5000 nM.
For `COc1ccc(-c2ccc(CNC(=O)COCCOCCOCCOCCn3cc(COCCOCCOCCOCCNc4ccc([N+](=O)[O-])cc4[N+](=O)[O-])nn3)o2)c2[nH]cc(C(=O)C(=O)N3CCN(C(=O)c4cccnc4)CC3)c12` the same measures were 3700 nM and 1300 nM.
In the case of `COc1ccc(-c2ccc(CNC(=O)COCCOCCOCCOCCn3cc(COCCOCCOCCOCCNc4ccc([N+](=O)[O-])cc4[N+](=O)[O-])nn3)o2)c2[nH]cc(C(=O)C(=O)N3CCN(C(=O)c4ccccn4)CC3)c12`, the IC50 in assay [1] was determined as 620 nM; in assay [2], 48 nM.
For the molecule `COc1ccc(-c2ccc(CNC(=O)COCCOCCOCCOCCOCCOCCn3cc(COCCOCCOCCOCCNc4ccc([N+](=O)[O-])cc4[N+](=O)[O-])nn3)o2)c2[nH]cc(C(=O)C(=O)N3CCN(C(=O)c4ccccc4)CC3)c12` [C5-furan], the IC50 in assay [3] was 309 nM; in assay [4] (Human immunodeficiency virus 1, TZM-b1, read-out: IC50 ADA), 6.35 nM; in assay [5], 0.72 nM; in assay [6] it was 10.3 nM; in assay [7] (Human immunodeficiency virus 1, BAL, TZM-b1, read-out: IC50 BaL), 34.8 nM.
With `COc1ccc(-c2ccc(CNC(=O)COCCOCCOCCOCCn3cc(COCCOCCOCCOCCNc4ccc([N+](=O)[O-])cc4[N+](=O)[O-])nn3)o2)c2[nH]cc(C(=O)C(=O)N3CCN(C(=O)c4ccc(O)cc4)CC3)c12`, the figures for the half-maximal inhibitory concentration (IC50) in assay [1] and in assay [2] were 239 nM and 90 nM, respectively.
For `COc1ccc(-c2ccc(CNC(=O)COCCOCCOCCOCCn3cc(COCCOCCOCCOCCNc4ccc([N+](=O)[O-])cc4[N+](=O)[O-])nn3)o2)c2[nH]cc(C(=O)C(=O)N3CCN(C(=O)c4ccc(C)cc4)CC3)c12` the same measures were 447 nM and 25 nM.
The like results for `COc1ccc(-c2ccc(CNC(=O)COCCOCCOCCOCCn3cc(COCCOCCOCCOCCNc4ccc([N+](=O)[O-])cc4[N+](=O)[O-])nn3)o2)c2[nH]cc(C(=O)C(=O)N3CCN(C(=O)c4ccc(CO)cc4)CC3)c12` were, in that order, 422 nM and about 1000 nM.
For `COc1ccc(-c2ccc(CNC(=O)COCCOCCOCCOCCn3cc(COCCOCCOCCOCCNc4ccc([N+](=O)[O-])cc4[N+](=O)[O-])nn3)o2)c2[nH]cc(C(=O)C(=O)N3CCN(C(=O)c4cccc(C)c4)CC3)c12` the same measures were 1360 nM and about 600 nM.
Regarding `COc1ccc(-c2ccc(CNC(=O)COCCOCCOCCOCCn3cc(COCCOCCOCCOCCNc4ccc([N+](=O)[O-])cc4[N+](=O)[O-])nn3)o2)c2[nH]cc(C(=O)C(=O)N3CCN(C(=O)c4ccncc4)CC3)c12`, the IC50 in assay [1] stood at 4700 nM; in assay [2], 9300 nM.
For `COc1ccc(-c2ccc(CNC(=O)COCCOCCOCCOCCn3cc(COCCOCCOCCOCCNc4ccc([N+](=O)[O-])cc4[N+](=O)[O-])nn3)o2)c2[nH]cc(C(=O)C(=O)N3CCN(C(=O)c4cccc(O)c4)CC3)c12` the same measures were 200 nM and 90 nM.
The like results for `COc1ccc(-c2ccc(CNC(=O)COCCOCCOCCOCCn3cc(COCCOCCOCCOCCNc4ccc([N+](=O)[O-])cc4[N+](=O)[O-])nn3)o2)c2[nH]cc(C(=O)C(=O)N3CCN(C(=O)c4ccccc4C)CC3)c12` were, in that order, 5140 nM and about 25000 nM.
For `COc1ccc(-c2ccc(CNC(=O)COCCOCCOCCOCCn3cc(COCCOCCOCCOCCNc4ccc([N+](=O)[O-])cc4[N+](=O)[O-])nn3)o2)c2[nH]cc(C(=O)C(=O)N3CCN(C(=O)c4cc(O)cc(O)c4)CC3)c12` the same measures were 745 nM and 230 nM.
